In ChEMBL document CHEMBL1156591, “Selective inhibitory effects of hybrid liposomes on the growth of HIV type 1-infected cells in vitro” (Bioorg Med Chem Lett, 2008):

Legend:
[1] = system: Human immunodeficiency virus 1; experiment: Growth inhibition of HIV1 3B infected human MOLT4 cells after 5 days by MTT assay; assay type: functional, organism-based; details: Human immunodeficiency virus 1, 3B, MOLT-4, 120 h
MOLT-4 = experiment: Growth inhibition of human MOLT4 cells after 5 days by MTT assay; assay type: cell-based; details: MOLT-4, 120 h

| SMILES | IC50 (MOLT-4) | IC50 [1] |
| --- | --- | --- |
| CCCCCCCCCCCCOCCOCCOCCOCCO [LAURETH 4] | 118 µM | 37 µM |
| CCCCCCCCCCCCOCCOCCOCCOCCOCCOCCOCCOCCO | 59 µM | 29 µM |
| CCCCCCCCCCCCCC(=O)OC[C@H](COP(=O)([O-])OCC[N+](C)(C)C)OC(=O)CCCCCCCCCCCCC [DIMYRISTOYLPHOSPHATIDYLCHOLINE] | 293 µM | 50 µM |

The next lines start with results.

| IC50 (MOLT-4) | SMILES | IC50 [1] |
| --- | --- | --- |
| 190 µM | CCCCCCCCCCCCOCCOCCOCCOCCOCCOCCOCCOCCOCCOCCOCCOCCOCCOCCOCCOCCOCCOCCOCCOCCOCCOCCOCCO | 47 µM |
| 121 µM | CCCCCCCCCCCCOCCOCCOCCOCCOCCOCCOCCOCCOCCOCCOCCOCCOCCOCCOCCOCCOCCOCCOCCOCCOCCO | 34 µM |
| 221 µM | CCCCCCCCCCCCOCCOCCOCCOCCOCCOCCOCCOCCOCCOCCOCCOCCOCCOCCOCCOCCOCCOCCOCCOCCOCCOCCOCCOCCOCCO | 40 µM |
| 41 µM | CCCCCCCCCCCCOCCOCCOCCOCCOCCOCCOCCOCCOCCOCCO | 26 µM |
